Results: ChEMBL document CHEMBL1125906, “Three-dimensional structure-activity relationships and receptor mapping of N1-substituents of quinolone antibacterials” (1991)

System: Escherichia coli
Experiment: Biological activity against Escherichia coli N1HJ JC-2 relative to Norfloxacin.
Format: functional

Row | Compound | activity relative to norfloxacin
1 | Cc1ccccc1-n1cc(C(=O)O)c(=O)c2cc(F)c(N3CCN(C)CC3)cc21 | 0.25
2 | CCn1cc(C(=O)O)c(=O)c2cc(F)c(N3CCNCC3)cc21 [NORFLOXACIN] | 4
3 | CN1CCN(c2cc3c(cc2F)c(=O)c(C(=O)O)cn3-c2ccccc2F)CC1 | 0.25
4 | CN1CCN(c2cc3c(cc2F)c(=O)c(C(=O)O)cn3-c2ccc(F)cc2)CC1 [DIFLOXACIN] | 4
5 | CNn1cc(C(=O)O)c(=O)c2cc(F)c(N3CCN(C)CC3)cc21 [AMIFLOXACIN] | 4
6 | CN1CCN(c2cc3c(cc2F)c(=O)c(C(=O)O)c2n3CCS2)CC1 | 4
7 | C[C@@H]1COc2c(N3CCN(C)CC3)c(F)cc3c(=O)c(C(=O)O)cn1c23 [DEXTROFLOXACINE] | 0.25
8 | O=C(O)c1cn(CCO)c2cc(N3CCNCC3)c(F)cc2c1=O | 0.25
9 | Cc1csc2c(C(=O)O)c(=O)c3cc(F)c(N4CCNCC4)cc3n12 | 4
10 | CCCn1cc(C(=O)O)c(=O)c2cc(F)c(N3CCNCC3)cc21 | 0.25
11 | CN1CCN(c2cc3c(cc2F)c(=O)c(C(=O)O)cn3-c2ccc(O)cc2)CC1 | 4
12 | C=Cn1cc(C(=O)O)c(=O)c2cc(F)c(N3CCNCC3)cc21 | 4
13 | Cn1cc(C(=O)O)c(=O)c2cc(F)c(N3CCNCC3)cc21 | 0.25
14 | O=C(O)c1c(=O)c2cc(F)c(N3CCNCC3)cc2n2ccsc12 | 4
15 | CN1CCN(c2cc3c(cc2F)c(=O)c(C(=O)O)cn3-c2ccc3c(c2)OCO3)CC1 | 0.25
16 | CN1CCN(c2cc3c(cc2F)c(=O)c(C(=O)O)cn3-c2ccc(Br)cc2)CC1 | 0.0312
17 | O=C(O)c1cn(CCF)c2cc(N3CCNCC3)c(F)cc2c1=O | 4
18 | O=C(O)c1cn(Cc2ccccc2)c2cc(N3CCNCC3)c(F)cc2c1=O | 0.25
19 | O=C(O)c1cn(C2CC2)c2cc(N3CCNCC3)c(F)cc2c1=O [CIPROFLOXACIN] | 4
20 | CN1CCN(c2cc3c(cc2F)c(=O)c(C(=O)O)cn3-c2cccc(F)c2)CC1 | 0.0312
21 | Cc1cccc(C)c1-n1cc(C(=O)O)c(=O)c2cc(F)c(N3CCN(C)CC3)cc21 | < 0.004
22 | CN1CCN(c2cc3c(cc2F)c(=O)c(C(=O)O)cn3-c2ccc(F)cc2F)CC1 | 4
23 | CN1CCN(c2cc3c(cc2F)c(=O)c(C(=O)O)cn3-c2ccccc2)CC1 | 0.25
24 | C=CCn1cc(C(=O)O)c(=O)c2cc(F)c(N3CCNCC3)cc21 | 0.25
25 | CN1CCN(c2cc3c(cc2F)c(=O)c(C(=O)O)cn3-c2ccc(Cl)cc2)CC1 | 0.25
26 | COc1ccc(-n2cc(C(=O)O)c(=O)c3cc(F)c(N4CCN(C)CC4)cc32)cc1 | 0.004
27 | CN(C)CCn1cc(C(=O)O)c(=O)c2cc(F)c(N3CCNCC3)cc21 | 0.0312
28 | C[C@H]1COc2c(N3CCN(C)CC3)c(F)cc3c(=O)c(C(=O)O)cn1c23.C[C@H]1COc2c(N3CCN(C)CC3)c(F)cc3c(=O)c(C(=O)O)cn1c23.O [LEVOFLOXACIN] | 4
29 | Cc1ccc(-n2cc(C(=O)O)c(=O)c3cc(F)c(N4CCN(C)CC4)cc32)cc1 | 0.25
